Test results reported in US11497740B2, “Use of Jumonji C demethylase inhibitors for the treatment and prevention of chemotherapy resistance and radioresistance in cancer” (THE BOARD OF REGENTS OF THE UNIVERSITY OF TEXAS SYSTEM, priority 2016, dated 2022).

Columns and labels:
[1] = system: H3K4me3 demethylase Jumonji enzymes; assay: Histone demethylase activity in H1299 cellular extracts (H3K4me3); assay type: cell-based, Human; details: JIB-04 4 h
Procedure: For Histone demethylase activity determination 2×10^6 H1299 cells were seeded in P150 plates. After 24 h cells were pretreated with JIB-04 or DMSO for 4 h, irradiated with a total dose of 8 Gy of radiation. Then cells were sonicated (3×4 sec) and equal amounts of protein were incubated with a histone H3K4me3 or H3K9me3 substrate in a reaction buffer containing cofactors for 1 h at 37° C. Finally specific immune-detection of the H3K4me2 or H3K9me2 product using the Epigentek kit P-3081 for H3K9me3 demethylation and P-3083 for H3K4me3 demethylation. Background readings were given by heat inactivated extracts.

[2] = system: H1693 T8; assay: MTS cell viability assay, H1693 T8 resistant variant vs parental; assay type: cell-based, human; details: H1693 T8 vs parental
Procedure: NSCLC lines were treated with paclitaxel+carboplatin combination, given in a ˜2:3 wt/wt ratio, to mirror the clinical dosage values of ˜225 mg/m2 and ˜330 mg/m2, paclitaxel and carboplatin respectively. Note that considering the molecular weights of the two drugs, this translates to approximately a 1 to 3.4 molar ratio. Drugs were given in cycles, following a drug on/drug off treatment scheme. Each cycle consisted of 4-5 days of drug treatment and drug-free culturing for about 1-2 weeks or more to allow the surviving cells to repopulate the plate. […] Untreated parental cells were simultaneously maintained at all times for comparison. Cell viability was assessed in 96-well plates using standard MTS assays (Promega). Treatment duration in MTS assays was 4 days. Drugs were tested in two- or four-fold serial dilutions, totaling 8 different drug concentrations, with 8 replicates per concentration. Response was validated in multiple replicate plates (n≥3).
Cell viability was assessed by standard MTS assays using Promega's CellTiter reagents. Eight drug concentrations given as two- or four-fold dilutions were tested for each chemotherapeutic agent. In addition, each experiment contained eight replicates per concentration and the entire assay was performed in multiple replicates (n≥3).

[3] = system: H3K9me3 at DSBs; assay: γH2AX immunoprecipitation, H3K9me3 at DSBs; assay type: cell-based, Human; details: JIB-04 4 h, IR 20 Gy
Procedure: (§1) For Histone demethylase activity determination 10×10^6 H1299 cells were seeded in P150 plates. Next day cells were preincubated with JIB-04 for 4 h and then irradiated with 20 Gy. Media was removed from cells, washed with PBS and fixed with 3% w/v PFA, 2% w/v sucrose in PBS for 1 min. Then cells were washed, scraped into media, pelleted by centrifugation (at 500 g for 2 min) and washed with Phosphatase inhibitor 1×, 1 μM Wortmannin (WM) and protease inhibitors 1× (Sigma). Cell pellets were re-suspended in 2.5× the packed cell volume (PCV) of Nucleosome Preparation Buffer (NPB, 10 mM HEPES [pH 7.9], 10 mM KCl, 1.0 mM CaCl2, 1.5 mM MgCl2, 0.34 M sucrose, 10% glycerol, 1 mM DTT, 0.1% Triton X-100) containing Phosphatase inhibitor, 1 μM Wortmannin (WM) and protease inhibitors (Sigma) and 100 U ml-1 micrococcal nuclease (MNase) and incubated at […] for 45 min (note: WM is required to block in vitro DNA-PK/ATM activation by MNase-produced DSBs). An equal volume of Nucleosome Solubilization Buffer (NSB=Nucleosome preparation buffer+2% [v/v] NP-40, 2% [v/v] Triton X-100, 600 mM NaCl) was then added. Samples were then vortexed, sonicated briefly and centrifuged at 10,000 rpm for 10 min. […] Protein levels on samples were quantified and equal amounts of protein run on 4-12% SDS acrylamide gels. […] Quantification was done using the using ImageJ software (National Institute of Health, NIH)

[4] = system: H3K4me3 at DSBs; assay: γH2AX immunoprecipitation, H3K4me3 at DSBs; assay type: cell-based, Human; details: JIB-04 4 h, IR 20 Gy
Procedure: as §1

[5] = system: RAD51; assay: RAD-51 foci kinetics after IR; assay type: cell-based, Human; details: JIB-04 25 nM 4 h, 10 Gy
Procedure: NSCLCs were seeded onto Lab-Tek II Chamber Slides (Thermo Fisher) and 24 hours later pretreated with JIB-04 or DMSO for 4 h. Then cells were exposed to a total dose of 2 Gy (γH2AX and 53BP1) or 10 Gy (RAD-51 and DNAPKcs p-T2609) radiation. For knockdown and overexpression experiments H1299 cells were transfected using the Amaxa Nucleofector; program X-005. Specifically, 3×10^6 were transfected with siRNA duplexes targeting JMJD2A, JMJD2B, Jarid1A, Jarid1b, scrambled siRNA (250 nM final concentration) or expression vectors pCMVHA-JMJD2A, pCMVHA-JMJD2B, pCMVHA-Jarid1A, pCMVHA-Jarid1B, PC-2 for 72 hours, followed by quantification of expression or irradiation. Then, cells were fixed in 4% formaldehyde/PBS for 15 min, permeabilized with 0.5% Triton X-100 for 15 min on ice, and blocked with 5% bovine serum albumin in PBS for 1 h. The slides were incubated with an antibody against phospho-Histone γH2AX (1:1000, 3 h at room temperature), 53BP1 (1:500, 3 h at room temperature), Rad-51 (1:500, 48 hs 4° C.) or DNAPKcs p-T2609 (1:500, 48 hs 4° C.). Alexa Fluor 488-conjugated goat anti-Rabbit, […] goat anti-mouse or rhodamine red-conjugated goat anti-mouse secondaries antibodies were used (1:1000, 1 h at room temperature). […] Cells were analyzed on a Zeiss upright fluorescent microscope.

[6] = system: H1299 Parental cells; assay: Emergence of paclitaxel+carboplatin drug-tolerant colonies, H1299 Parental; assay type: cell-based, human; details: sub-lethal doses with paclitaxel+carboplatin
Excerpt: FIGS. 8A-8E. […] Response was greater than additive, indicated by positive ΔBliss. […] Representative images from replicate assays (n=3) are shown. […] See also FIGS. 15-16.

| Structure (SMILES) | IR-increased H3K4me3 demethylase activity ([1]; IR 8 Gy, 15 min after radiation) | basal H3K4me3 demethylase activity ([1]; no IR) | fold increased sensitivity vs parental [2] | H3K9me3 at sites of DNA damage marked by γH2AX [3] | H3K4me3 at sites of DNA damage marked by γH2AX [4] | RAD51 foci resolution [5] | RAD51 recruitment (foci formation) [5] | emergence of drug-tolerant persister colonies [6] |
| --- | --- | --- | --- | --- | --- | --- | --- | --- |
| Clc1ccc(N/N=C(\c2ccccc2)c2ccccn2)nc1 [JIB-04] | blocked this increased activity | did not have any effects on basal activity | ~3 fold | No changes in H3K9me3 | increased H3K4me3 | impaired foci resolution | significantly diminished RAD51 recruitment | – |
| CCOC(=O)CCNc1cc(N2CCc3ccccc3CC2)nc(-c2ccccn2)n1 [GSK-J4] | – | – | – | – | – | – | – | prevented the emergence of drug-tolerant persister colonies |
